Test results reported in ChEMBL document CHEMBL5335803, “Potential of several triazene derivatives against DENGUE viruses” (Bioorg Med Chem Lett, 2024).

Tests used:
[1] = Cytotoxicity against human Huh-7 cells infected with DENV assessed as reduction in cell viability by microplate spectrophotometry; format: toxicity, cell-based
Dengue virus [2] = test: Antiviral activity against DENV infected in human Huh-7 cells assessed as percent of infected cells at 50 uM incubated for 72 hrs by flow cytometry relative to control; format: functional
Dengue virus [3] = test: Antiviral activity against DENV infected in human Huh-7 cells assessed as reduction in viral growth incubated for 72 hrs by flow cytometry; format: functional, organism-based; conditions: Huh-7, 72 h
[4] = Selectivity index, ratio of CC50 for human Huh-7 cells to EC50 for DENV infected in Huh-7 cells; format: toxicity, cell-based; conditions: read-out: Selectivity Index
Dengue virus [5] = test: Antiviral activity against DENV infected in human Huh-7 cells assessed as percent of infected cells at 12.5 uM incubated for 72 hrs by flow cytometry relative to control; format: functional

## CCN(CC)/N=N/c1ccc(OC)cc1
[1]
  CC50: 24.4 µM
Dengue virus [2]
  Activity: 22%
Dengue virus [3]
  EC50: > 50 µM

## c1ccc(/N=N/Nc2ccccn2)cc1
[1]
  CC50: 22.1 µM
Dengue virus [2]
  Activity: <=20%
Dengue virus [3]
  EC50: 10.6 µM

## COc1ccc(/N=N/Nc2ccccn2)cc1
[1]
  CC50: 15.5 µM
Dengue virus [2]
  Activity: <=20%
Dengue virus [3]
  EC50: < 1.56 µM

## COc1ccc(/N=N/n2ccnc2)cc1
[4]
  selectivity ratio: 2.22
[1]
  CC50: 72 µM
Dengue virus [2]
  Activity: 22%
Dengue virus [3]
  EC50: 32.4 µM

## O[C@H]1[C@H]2c3cc4c(cc3CN3CCC(=C[C@@H]1O)[C@H]23)OCO4 [LYCORINE]
Dengue virus [3]
  EC50: 1.7 µM

## FC(F)(F)c1ccc(/N=N/n2ccnc2)cc1
[4]
  selectivity ratio: > 12.8
Dengue virus [5]
  Activity: 0%
[1]
  CC50: > 100 µM
Dengue virus [2]
  Activity: <=20%
Dengue virus [3]
  EC50: 7.82 µM

## Brc1cccc(/N=N/Nc2ccccn2)c1
[1]
  CC50: 27.4 µM
Dengue virus [2]
  Activity: <=20%
Dengue virus [3]
  EC50: 8.45 µM

## COc1ccc(/N=N/Nc2ncccc2C)cc1
[1]
  CC50: > 100 µM
Dengue virus [2]
  Activity: 22%
Dengue virus [3]
  EC50: 11.5 µM

## NC(=O)c1ncn([C@@H]2O[C@H](CO)[C@@H](O)[C@H]2O)n1 [RIBAVIRIN]
Dengue virus [3]
  EC50: 40.8 µM

## Brc1ccc(/N=N/Nc2ccccn2)cc1
[4]
  selectivity ratio: 9.36
[1]
  CC50: 75.6 µM
Dengue virus [2]
  Activity: <=20%
Dengue virus [3]
  EC50: 8.08 µM

## CN(/N=N/c1cccnc1)c1ccccc1
[1]
  CC50: 20.6 µM
Dengue virus [3]
  EC50: 11.7 µM

## c1cncc(/N=N/N2CCCc3ccccc32)c1
[1]
  CC50: 7.09 µM
Dengue virus [2]
  Activity: 22%
Dengue virus [3]
  EC50: 7.92 µM

## COc1ccc(/N=N/Nc2ccncc2)cc1
[1]
  CC50: 28.5 µM
Dengue virus [2]
  Activity: 22%
Dengue virus [3]
  EC50: 48.1 µM

## FC(F)(F)c1ccc(/N=N/Nc2ccncc2)cc1
[1]
  CC50: 11.9 µM
